Measurements reported in patent US20240268380A1, “USE OF ESSENTIAL OILS AS BIOSTIMULANTS FOR MYCELIA AND MUSHROOMS” (MYCELIANCE, priority 2021, published 2024).

System: Agaricus bisporus mycelium
Assay: Stimulation of the growth of Agaricus bisporus mycelium on PDA culture medium
Assay type: cell-based
Conditions: for effect on the growth of the Agaricus bisporus mycelium: purified terpene at 40 μL/L, TripleX make (Amycel)
Experimental: • Mixing, in a sterile container, the essential oil or oils or the terpene or terpenes selected according to the invention, with the surfactant or surfactants, in equal portions: […], therefore preparing 200 μl in total.
• Preparing 2 times 1 litre of PDA in accordance with the instructions of the supplier, in separate containers. • Sterilising the two solutions at the same time, 15 minutes at 121° C. in an autoclave.
• Waiting until the two solutions drop in temperature, to reach approximately 40° C. • Homogenising and then pouring the composition of biostimulants, into one of the two containers. • Pouring the same volume of the surfactant or surfactants used, into the second container. • Placing under stirring, and then pouring the 2 litres of solutions into annotated petri dishes. • Placing the petri dishes in an incubator at 23° C.±1° C. and 80% humidity.
• Inoculating all the petri dishes with the mushroom strain selected. • Re-placing the petri dishes in an incubator at 23° C.±1° C. and 80% humidity.
• After 7 days, tracing the contour of the mycelium under the petri dishes, with a fine marker. • Once again tracing the contour of the mycelium after 14 and 21 days following the inoculation. • Measuring its growth to within 0.5 mm, on 4 axes separated by 90°, for each petri dish. • Calculating the mean growths measured, then determining the percentage inhibition or biostimulation compared with the reference, which contains only the surfactant or surfactants, without the essential oil or oils or the terpene and terpenes use.
The manipulations for each essential oil tested were reproduced 40 times, using the Agaricus bisporus mycelium of Heirloom make, supplied by the American company Amycel.
The tests were performed on three strains of Agaricus bisporus (of Heirloom and TripleX makes from the company Amycel and Tuscan from the company Sylvan) with the purified terpene ([…]. […]

Structure (SMILES) | effect on the growth of the Agaricus bisporus mycelium | effect on the growth of the mycelia of three strains of Agaricus bisporus (purified terpene, Heirloom and TripleX makes at 40 or 80 μL/L, Tuscan make at 80 or 100 μL/L, effect reinforced by increasing the concentration)
C=C1CCC2CC1C2(C)C (stereo not drawn) [β-pinene] | biostimulant effect | very marked effect of biostimulation
CC1=CCC2CC1C2(C)C (stereo not drawn) [α-pinene, reference compound] | inhibiting effect | –
